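Step 1: Grow cells in 96-well plates. Step 2: Expose to compound for 48 hours at 5 concentrations. Step 3: Interpolate endpoints linearly; if unreached, use highest concentration. Here, GI50 denotes the concentration required for 50% inhibition of growth. TGI: total growth inhibition.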 Where a SMILES comes first, the peptide text is derived from it. [ ]: non-standard residue; d: D form. pGlu = O=C1CC[CH](C(=O)O)N1
What was measured:
Experiment in all cases: DTP human tumour cell line panel, 48 h
A498 renal = system: A498 renal
SF-295 CNS = system: SF-295 CNS
CCRF-CEM leukemia = system: CCRF-CEM leukemia
SF-539 CNS = system: SF-539 CNS
MDA-MB-231 breast = system: MDA-MB-231 breast
CAKI-1 renal = system: CAKI-1 renal
SK-OV-3 ovarian = system: SK-OV-3 ovarian
786-0 renal = system: 786-0 renal
U251 CNS = system: U251 CNS
SNB-75 CNS = system: SNB-75 CNS

Row | SMILES | GI50 (A498 renal) [µM] | TGI (A498 renal) [µM] | GI50 (SF-295 CNS) [µM] | TGI (SF-295 CNS) [µM] | GI50 (CCRF-CEM leukemia) [µM] | TGI (CCRF-CEM leukemia) [µM] | GI50 (SF-539 CNS) [µM] | TGI (SF-539 CNS) [µM] | GI50 (MDA-MB-231 breast) [µM] | TGI (MDA-MB-231 breast) [µM] | GI50 (CAKI-1 renal) [µM] | TGI (CAKI-1 renal) [µM] | GI50 (SK-OV-3 ovarian) [µM] | TGI (SK-OV-3 ovarian) [µM] | GI50 (786-0 renal) [µM] | TGI (786-0 renal) [µM] | GI50 (U251 CNS) [µM] | TGI (U251 CNS) [µM] | GI50 (SNB-75 CNS) [µM] | TGI (SNB-75 CNS) [µM]
1 | CCCCON(OC(=O)c1ccc2ccccc2c1)C(=O)c1ccccc1 | > 100 | > 100 | > 100 | > 100 | 21.4 | 57.3 | > 100 | > 100 | > 100 | > 100 | > 100 | > 100 | > 100 | > 100 | 73.4 | > 100 | > 100 | > 100 | 86.2 | > 100
2 | O=C(CCCCCCNC(=O)c1cnc(N(c2ccccc2)c2ccccc2)nc1)NO | 2.5 | 14.8 | 2.95 | 10.8 | 1.03 | > 100 | 2.92 | 52.3 | 2.99 | 14.7 | 6.38 | 43.3 | 3.25 | 23.8 | 6.18 | > 73.1 | 3 | 15.6 | 1.5 | > 51.9
3 | COc1cccc(N2CCN(CC(=O)N3CCN(c4nnc(-c5ccc(Cl)cc5)c(-c5ccc(Cl)cc5)n4)CC3)CC2)c1 | 19.6 | 52.1 | 28.9 | > 100 | 27.2 | > 100 | 11.5 | 90.7 | 34.2 | > 100 | 14.8 | > 100 | 22 | 77.6 | 16.3 | 62.3 | 16.7 | > 100 | 19 | 52.9
4 | COc1ccc(C(=S)N2CCN(c3cccc(C)c3)CC2)cc1OC | 4.85 | > 100 | 4.26 | 44.8 | > 100 | > 100 | 5.1 | > 100 | 5.85 | > 100 | 3.21 | > 100 | 7.24 | > 100 | 7.54 | > 100 | 5.8 | > 100 | 2.16 | 11.9
5 | O=c1[nH]c(=O)c2cn[nH]c2[nH]1 | > 100 | > 100 | > 100 | > 100 | > 100 | > 100 | > 100 | > 100 | > 100 | > 100 | > 100 | > 100 | > 100 | > 100 | > 100 | > 100 | > 100 | > 100 | > 100 | > 100
6 | CCN(Cc1cc(Nc2nc(C)cn3c(-c4cn[nH]c4)cnc23)sn1)C(C)(C)CO | < 0.01 | 0.0163 | 0.0468 | 3.36 | < 0.01 | 9.55 | 0.0179 | 0.118 | 0.0508 | 4.35 | 0.0358 | 11.5 | 0.0241 | 3.38 | 0.0473 | 2.73 | 0.0289 | 2.21 | 0.0107 | 0.0365
7 | COc1cc(C(O)CCBr)c(OC)cc1C (stereo not given) | – | > 100 | – | > 73.1 | – | > 52.7 | – | 31.3 | – | > 72.7 | – | > 100 | – | > 73.6 | – | > 100 | – | > 100 | – | > 100
8 | Oc1c(-c2nnc(-c3ccccc3Cl)o2)sc2nnc(-c3ccccc3)c(-c3ccccc3)c12 | 7.35 | 41.7 | 1.89 | 15.6 | 1.43 | > 100 | 4.45 | 70.4 | 4.08 | 40.1 | 0.501 | 24.6 | 5.14 | > 100 | 7.22 | > 100 | 2.31 | > 100 | 6.94 | > 100
9 | CN(Cc1ccccc1)C(=NC#N)N(Cc1ccccc1)Cc1ccccc1 | – | > 100 | – | 47.4 | – | > 100 | – | 39.7 | – | 58.7 | – | 58.6 | – | > 90.3 | – | 97.6 | – | 96.9 | – | 82.2
10 | O=C1C(Cl)=C(Nc2cccc(Cl)c2)C(=O)N1Cc1ccc(Cl)cc1 | 1.55 | 11.9 | 0.532 | 15.6 | 0.318 | > 19.8 | 0.196 | 2.37 | 0.216 | 1.22 | 0.919 | 13.9 | 6.34 | 24.6 | 0.186 | 5.48 | 0.312 | 14.2 | 1.48 | 14.6
11 | CC(=O)NC1C(OC[C@@H](CC(=O)N[C@@H](CC(=O)O)CC(=O)N[C@H](CC(=O)N[C@@H](CCCN)CC(=O)N[C@@H](CCCN)CC(=O)N[C@H](CC(N)=O)C(C)C)C(C)C)NC(=O)C[C@@H](N)C(C)C)OC(CO)C(O)C1O (stereo not given in full) | > 100 | > 100 | > 100 | > 100 | > 100 | > 100 | > 100 | > 100 | > 100 | > 100 | > 100 | > 100 | > 100 | > 100 | > 100 | > 100 | > 100 | > 100 | > 100 | > 100
12 | CCNC(=O)C1CCCN1C(=O)C(CCCN=C(N)N)NC(=O)C(CC(C)C)NC(=O)C(CC(C)C)NC(=O)C(Cc1ccc(O)cc1)NC(=O)C(CO)NC(=O)C(Cc1c[nH]c2ccccc12)NC(=O)C(Cc1cnc[nH]1)NC(=O)C1CCC(=O)N1 (stereo not given) ([pGlu]HWSYLLRP-NHEt; configuration not given here) | > 100 | > 100 | > 100 | > 100 | 81.7 | > 100 | > 100 | > 100 | > 100 | > 100 | > 100 | > 100 | > 100 | > 100 | > 100 | > 100 | > 100 | > 100 | > 100 | > 100

Source: PubChem BioAssay (NCI)
